According to ChEMBL document CHEMBL1201862, “PubChem BioAssay data set” (2004):
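How tested: cells in 96-well plates exposed to compound for 48 hours at five concentrations. At the GI50, growth is halved.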 Active and inactive are the calls of the source. Cut-off read from the data, not from the text of the source: active = GI50 up to about 1.1 µM and inactive = higher.

Key:
Assay in all cases: DTP human tumour cell line panel, 48 h
[1] = system: HCT-15
[2] = system: SF-268
[3] = system: TK-10
[4] = system: UO-31
[5] = system: 786-0
[6] = system: COLO 205
[7] = system: SF-295
[8] = system: ACHN
[9] = system: CCRF-CEM
[10] = system: SR
[11] = system: OVCAR-8
[12] = system: HCT-116
[13] = system: NCI-H23
[14] = system: HOP-92
[15] = system: OVCAR-5
[16] = system: A498
[17] = system: OVCAR-3
[18] = system: SF-539
[19] = system: M14

| SMILES | GI50 [1] | GI50 [2] | GI50 [3] | GI50 [4] | GI50 [5] | GI50 [6] | GI50 [7] | GI50 [8] | GI50 [9] | GI50 [10] | GI50 [11] | GI50 [12] | GI50 [13] | GI50 [14] | GI50 [15] | GI50 [16] | GI50 [17] | GI50 [18] | GI50 [19] |
| --- | --- | --- | --- | --- | --- | --- | --- | --- | --- | --- | --- | --- | --- | --- | --- | --- | --- | --- | --- |
| CCN(CC)c1cccc2c1/C(=N/O)CCCC2 | > 100 µM | > 100 µM (inactive) | > 100 µM (inactive) | > 100 µM (inactive) | > 100 µM (inactive) | > 100 µM (inactive) | 83.8 µM (inactive) | > 100 µM (inactive) | > 100 µM (inactive) | > 100 µM (inactive) | > 100 µM (inactive) | 92.3 µM (inactive) | > 100 µM (inactive) | – | – | – | – | – | – |
| C=CCCN1CCc2c([nH]c3ccccc23)C1C(=O)O (stereo not drawn) | – | 78.3 µM (inactive) | > 100 µM (inactive) | > 100 µM (inactive) | – | > 100 µM (inactive) | > 100 µM (inactive) | > 100 µM (inactive) | 96.2 µM (inactive) | > 100 µM (inactive) | – | > 100 µM (inactive) | 78 µM (inactive) | > 100 µM (inactive) | > 100 µM (inactive) | > 100 µM (inactive) | > 100 µM (inactive) | > 100 µM (inactive) | > 100 µM (inactive) |
| COc1ccc(CCn2cncn2)cc1 | > 100 µM | > 100 µM (inactive) | > 100 µM (inactive) | > 100 µM (inactive) | – | > 100 µM (inactive) | > 100 µM (inactive) | > 100 µM (inactive) | > 100 µM (inactive) | > 100 µM (inactive) | – | > 100 µM (inactive) | > 100 µM (inactive) | > 100 µM (inactive) | > 100 µM (inactive) | – | > 100 µM (inactive) | > 100 µM (inactive) | > 100 µM (inactive) |
| CN1C(=O)CCC1c1ccc2c(c1)oc(=O)n2C (stereo not drawn) | > 100 µM | > 100 µM (inactive) | > 100 µM (inactive) | > 100 µM (inactive) | > 100 µM (inactive) | > 100 µM (inactive) | > 100 µM (inactive) | > 100 µM (inactive) | > 100 µM (inactive) | – | > 100 µM (inactive) | > 100 µM (inactive) | > 100 µM (inactive) | – | > 100 µM (inactive) | – | – | > 100 µM (inactive) | > 100 µM (inactive) |
| O=C1c2ccccc2N(O)C1(c1ccccc1)C1CCCC=C1N1CCOCC1 (stereo not drawn) | 91.2 µM | 40.8 µM (inactive) | > 100 µM (inactive) | 22.5 µM (inactive) | – | > 100 µM (inactive) | > 100 µM (inactive) | > 100 µM (inactive) | 40.7 µM (inactive) | 28.4 µM (inactive) | > 100 µM (inactive) | 28.5 µM (inactive) | > 100 µM (inactive) | – | > 100 µM (inactive) | – | > 100 µM (inactive) | 80.9 µM (inactive) | > 100 µM (inactive) |
| O=C(NCCCl)SCCO | > 100 µM | > 100 µM (inactive) | > 100 µM (inactive) | > 100 µM (inactive) | > 100 µM (inactive) | > 100 µM (inactive) | > 100 µM (inactive) | > 100 µM (inactive) | > 100 µM (inactive) | > 100 µM (inactive) | > 100 µM (inactive) | > 100 µM (inactive) | > 100 µM (inactive) | – | > 100 µM (inactive) | > 100 µM (inactive) | > 100 µM (inactive) | > 100 µM (inactive) | > 100 µM (inactive) |
| CCOC(=O)/C=C/n1c2ccccc2c(=O)c2ccccc21 | > 100 µM | > 100 µM (inactive) | > 100 µM (inactive) | > 100 µM (inactive) | > 100 µM (inactive) | > 100 µM (inactive) | > 100 µM (inactive) | > 100 µM (inactive) | > 100 µM (inactive) | > 100 µM (inactive) | > 100 µM (inactive) | > 100 µM (inactive) | > 100 µM (inactive) | – | – | > 100 µM (inactive) | > 100 µM (inactive) | > 100 µM (inactive) | > 100 µM (inactive) |
| CC(=O)Nc1ccc(C(=O)NN2C(=O)C(Cl)/C2=C/c2ccco2)cc1 (stereo not drawn) | – | > 100 µM (inactive) | > 100 µM (inactive) | > 100 µM (inactive) | – | > 100 µM (inactive) | > 100 µM (inactive) | > 100 µM (inactive) | > 100 µM (inactive) | > 100 µM (inactive) | > 100 µM (inactive) | > 100 µM (inactive) | > 100 µM (inactive) | > 100 µM (inactive) | > 100 µM (inactive) | – | > 100 µM (inactive) | > 100 µM (inactive) | – |
| N#C/C(=C\c1cc(O)cc(O)c1)C(N)=O | > 100 µM | > 100 µM (inactive) | > 100 µM (inactive) | > 100 µM (inactive) | > 100 µM (inactive) | > 100 µM (inactive) | > 100 µM (inactive) | > 100 µM (inactive) | > 100 µM (inactive) | – | > 100 µM (inactive) | > 100 µM (inactive) | > 100 µM (inactive) | > 100 µM (inactive) | > 100 µM (inactive) | > 100 µM (inactive) | > 100 µM (inactive) | > 100 µM (inactive) | > 100 µM (inactive) |
| CC(=O)OC1CC2Oc3ccc(C)cc3C(C)(O2)C1=O (stereo not drawn) | > 100 µM | – | > 100 µM (inactive) | > 100 µM (inactive) | > 100 µM (inactive) | > 100 µM (inactive) | > 100 µM (inactive) | > 100 µM (inactive) | > 100 µM (inactive) | – | > 100 µM (inactive) | > 100 µM (inactive) | > 100 µM (inactive) | – | – | – | > 100 µM (inactive) | > 100 µM (inactive) | > 100 µM (inactive) |
| O=C(Nn1c(-c2ccccc2)nc2ccccc2c1=O)c1ccc(CS)cc1 | – | 26.2 µM (inactive) | > 100 µM (inactive) | 46.3 µM (inactive) | 24.4 µM (inactive) | 60.3 µM (inactive) | > 100 µM (inactive) | 54.5 µM (inactive) | 5.89 µM (inactive) | 19.5 µM (inactive) | 57.1 µM (inactive) | 39.4 µM (inactive) | 49.9 µM (inactive) | 34.9 µM (inactive) | > 100 µM (inactive) | 24.5 µM (inactive) | 67.6 µM (inactive) | 24.5 µM (inactive) | 47.6 µM (inactive) |
| O=C1C(Cl)N(c2ccccc2[N+](=O)[O-])C1c1c[nH]c2ccccc12 (stereo not drawn) | – | > 100 µM (inactive) | > 100 µM (inactive) | 54.6 µM (inactive) | – | > 100 µM (inactive) | > 100 µM (inactive) | – | > 100 µM (inactive) | > 100 µM (inactive) | > 100 µM (inactive) | > 100 µM (inactive) | > 100 µM (inactive) | 81.3 µM (inactive) | 1.36 µM (inactive) | – | > 100 µM (inactive) | > 100 µM (inactive) | > 100 µM (inactive) |
| COC1(OC)CCC2C1C1CCC(OC)(OC)C21 (stereo not drawn) | > 50 µM | > 50 µM (inactive) | – | > 50 µM (inactive) | > 50 µM (inactive) | > 50 µM (inactive) | > 50 µM (inactive) | > 50 µM (inactive) | > 50 µM (inactive) | – | > 50 µM (inactive) | > 50 µM (inactive) | > 50 µM (inactive) | > 50 µM (inactive) | > 50 µM (inactive) | > 50 µM (inactive) | > 50 µM (inactive) | > 50 µM (inactive) | > 50 µM (inactive) |
